Where two headings read alike, the source gives them in different places.

Common to all, as to assay type: biochemical
The target in assay [1] is T1, TYK2 (aa 871-1187, catalytic domain, GST-tag) (Homo sapiens, UniProt P29597).
T1 construct: JAK1 (aa 850-1154) and TYK2 (aa 871-1187) are expressed with an N-terminally fused GST-tag; GST (N); purchased Carna Biosciences, Inc; host or cells: baculovirus expression system
T1 sequence (P29597 871-1187): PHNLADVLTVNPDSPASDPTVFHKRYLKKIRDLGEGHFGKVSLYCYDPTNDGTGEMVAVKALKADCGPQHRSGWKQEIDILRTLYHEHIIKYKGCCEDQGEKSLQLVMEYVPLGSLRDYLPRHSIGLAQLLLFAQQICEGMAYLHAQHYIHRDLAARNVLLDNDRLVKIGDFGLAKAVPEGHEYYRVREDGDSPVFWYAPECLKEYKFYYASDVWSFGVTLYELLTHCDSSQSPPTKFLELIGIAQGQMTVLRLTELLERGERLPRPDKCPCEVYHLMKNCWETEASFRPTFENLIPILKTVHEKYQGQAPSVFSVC
As to the kind of experiment: JAK kinase assay (HTRF, phosphorylation of TK substrate-biotin), TYK2. The settings on record: ATP at Km (13 μM). In short, it runs like this:
(§1)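 Baculovirus-expressed catalytic domains phosphorylated 1 μM TK substrate-biotin in 50 mM Hepes pH 7.0 with ATP at Km (JAK1 7 μM, JAK2 4 μM, JAK3 2 μM, TYK2 13 μM) for 20-30 min at RT. EDTA/KF stop, streptavidin-XL665 plus cryptate antibody overnight; HTRF signal gave EC50.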

Assay [2] has as its target T2, JAK2 (catalytic domain, His-tag) (Homo sapiens, UniProt O60674).
T2 construct: All four purified enzymes contain only the catalytic domain; His (N); purchased Carna Biosciences, Inc; host or cells: baculovirus expression system
The assay can be described thus: JAK kinase assay (HTRF, phosphorylation of TK substrate-biotin), JAK2. Conditions: ATP at Km (4 μM). A digest of the protocol:
as §1
Background: Time-resolved FRET reads energy transfer from a long-lived donor to a nearby acceptor.

The target in assay [3] is T3, JAK1 (aa 850-1154, catalytic domain, GST-tag) (Homo sapiens, UniProt P23458).
T3 construct: JAK1 (aa 850-1154) and TYK2 (aa 871-1187) are expressed with an N-terminally fused GST-tag; GST (N); purchased Carna Biosciences, Inc; host or cells: baculovirus expression system
The assay can be described thus: JAK kinase assay (HTRF, phosphorylation of TK substrate-biotin), JAK1. The settings on record: ATP at Km (7 μM). In short, it runs like this: as §1

Assay [4] deals with T4, JAK3 (catalytic domain, His-tag) (Homo sapiens, UniProt P52333).
T4 construct: All four purified enzymes contain only the catalytic domain; His (N); purchased Carna Biosciences, Inc; host or cells: baculovirus expression system
The assay can be described thus: JAK kinase assay (HTRF, phosphorylation of TK substrate-biotin), JAK3. Conditions: ATP at Km (2 μM). A digest of the protocol:
as §1

The mark [5] stands for this setting: read-out: TYK2 kinase inhibitory activity (EC50 indicator).
[6] abbreviates: read-out: JAK2 kinase inhibitory activity (EC50 indicator).
Setting [7] is: read-out: JAK1 kinase inhibitory activity (EC50 indicator).
The mark [8] stands for this setting: read-out: JAK3 kinase inhibitory activity (EC50 indicator).
[9] abbreviates: HTRF assay, read-out: TYK2 kinase inhibitory activity (EC50 indicator).
The mark [10] stands for this setting: HTRF assay, read-out: JAK2 kinase inhibitory activity (EC50 indicator).
Where [11] appears, read: HTRF assay, read-out: JAK1 kinase inhibitory activity (EC50 indicator).
Setting [12] is: HTRF assay, read-out: JAK3 kinase inhibitory activity (EC50 indicator).

T2 sequence (O60674 849-1124 limits assumed): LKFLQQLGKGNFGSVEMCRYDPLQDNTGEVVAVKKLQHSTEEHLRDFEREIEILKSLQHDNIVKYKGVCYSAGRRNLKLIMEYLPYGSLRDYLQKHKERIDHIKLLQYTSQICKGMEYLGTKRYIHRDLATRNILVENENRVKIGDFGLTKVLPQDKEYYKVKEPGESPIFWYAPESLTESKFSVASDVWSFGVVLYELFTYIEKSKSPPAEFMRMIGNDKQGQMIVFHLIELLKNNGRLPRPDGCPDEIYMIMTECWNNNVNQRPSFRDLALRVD
T4 sequence (P52333 822-1111 limits assumed): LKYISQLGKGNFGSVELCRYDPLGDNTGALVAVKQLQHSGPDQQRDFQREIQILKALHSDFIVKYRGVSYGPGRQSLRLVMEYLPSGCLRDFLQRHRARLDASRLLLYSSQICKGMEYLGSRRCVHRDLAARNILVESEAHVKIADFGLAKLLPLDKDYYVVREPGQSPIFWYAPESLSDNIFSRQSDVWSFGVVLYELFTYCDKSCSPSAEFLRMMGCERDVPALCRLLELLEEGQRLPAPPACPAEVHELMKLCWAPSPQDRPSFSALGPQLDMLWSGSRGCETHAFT
T3 sequence (P23458 850-1154): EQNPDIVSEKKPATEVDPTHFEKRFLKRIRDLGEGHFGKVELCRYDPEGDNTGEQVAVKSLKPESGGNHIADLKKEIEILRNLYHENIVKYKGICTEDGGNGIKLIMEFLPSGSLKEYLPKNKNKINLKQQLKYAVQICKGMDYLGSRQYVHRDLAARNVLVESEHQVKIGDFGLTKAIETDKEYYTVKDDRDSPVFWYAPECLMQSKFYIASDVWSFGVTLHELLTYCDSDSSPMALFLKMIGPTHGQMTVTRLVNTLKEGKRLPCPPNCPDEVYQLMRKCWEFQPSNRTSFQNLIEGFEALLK

Turning to `O=C(c1cnccn1)N1CCN(c2ncnc3[nH]ccc23)CC12CC2` [Example 19, Pyrazin-2-yl-[7-(7H-pyrrolo[2,3-d]pyrimidin-4-yl)-4,7-diazaspiro[2.5]oct-4-yl]methanone], the EC50 (in general, the concentration at which the effect is half-maximal) is 100 to 500 nM in assay [1] (setting [5]), below 100 nM in assay [2] (setting [6]), below 100 nM in assay [3] (setting [7]) and below 100 nM in assay [4] (setting [8]).
`O=C(N1CCN(c2ncnc3[nH]ccc23)CC12CC2)C1(c2ccccc2)CC1` [Example 154, (1-Phenyl-cyclopropyl)-[7-(7H-pyrrolo[2,3-d]pyrimidin-4-yl)-4,7-diaza-spiro[2.5]oct-4-yl]-methanone]: the EC50 in assay [1] (setting [5]) was above 500 nM; in assay [2] (setting [6]) it was below 100 nM; in assay [3] (setting [7]), 100 to 500 nM; in assay [4] (setting [8]), above 500 nM.
With `N#Cc1ccc(C(F)(F)C(=O)N2[C@@H]3CC[C@H]2CN(c2ncnc4[nH]ccc24)C3)cc1` [Example 65, 4-{1,1-Difluoro-2-oxo-2-[3-(7H-pyrrolo[2,3-d]pyrimidin-4-yl)-3,8-diaza-bicyclo[3.2.1]oct-8-yl]-ethyl}-benzonitrile], the EC50 in assay [1] (setting [5]) was above 500 nM; in assay [2] (setting [6]) it was below 100 nM; in assay [3] (setting [7]), 100 to 500 nM; in assay [4] (setting [8]) it was 100 to 500 nM.
For `O=C(C1Cc2ccccc21)N1CCN(c2ncnc3[nH]ccc23)CC12CC2` (stereo not shown) [Example 125, Bicyclo[4.2.0]octa-1(6),2,4-trien-7-yl-[7-(7H-pyrrolo[2,3-d]pyrimidin-4-yl)-4,7-diaza-spiro[2.5]oct-4-yl]-methanone], the EC50 in assay [1] (setting [5]) was above 500 nM; in assay [2] (setting [6]), below 100 nM; in assay [3] (setting [7]), below 100 nM; in assay [4] (setting [8]), 100 to 500 nM.
As to `CC(=O)NCC(=O)N1CCN(c2ncnc3[nH]ccc23)CC12CC2` [Example 151, N-{2-Oxo-2-[7-(7H-pyrrolo[2,3-d]pyrimidin-4-yl)-4,7-diaza-spiro[2.5]oct-4-yl]-ethyl}-acetamide], the EC50 in assay [1] (setting [5]) is above 500 nM; in assay [2] (setting [6]), 100 to 500 nM; in assay [3] (setting [7]), 100 to 500 nM; in assay [4] (setting [8]) it was above 500 nM.
As for `N#Cc1cccc(CC(=O)N2CCN(c3ccnc4[nH]ccc34)CC23CC3)c1` [Example 236, 3-{2-Oxo-2-[7-(1H-pyrrolo[2,3-b]pyridin-4-yl)-4,7-diaza-spiro[2.5]oct-4-yl]-ethyl}-benzonitrile], the EC50 in assay [1] (setting [9]), in assay [2] (setting [10]), in assay [3] (setting [11]) and in assay [4] (setting [12]) was above 500 nM throughout.
Take `O=C(c1ccc(-c2ccccc2)s1)N1CCN(c2ncnc3[nH]ccc23)CC12CC2` [Example 215, (5-Phenyl-thiophen-2-yl)-[7-(7H-pyrrolo[2,3-d]pyrimidin-4-yl)-4,7-diaza-spiro[2.5]oct-4-yl]-methanone]: the EC50 is 100 to 500 nM in assay [1] (setting [9]), below 100 nM in assay [2] (setting [10]), below 100 nM in assay [3] (setting [11]) and 100 to 500 nM in assay [4] (setting [12]).
Take `O=C(c1cc2ccccc2s1)N1CCN(c2ccnc3[nH]ccc23)CC12CC2` [Example 82, Benzo[b]thiophen-2-yl-[7-(1H-pyrrolo[2,3-b]pyridin-4-yl)-4,7-diaza-spiro[2.5]oct-4-yl]-methanone]: the EC50 in assay [1] (setting [5]) is above 500 nM; in assay [2] (setting [6]), 100 to 500 nM; in assay [3] (setting [7]), 100 to 500 nM; in assay [4] (setting [8]) it was above 500 nM.
`O=C(C1CCc2ccccc21)N1CCN(c2ncnc3[nH]ccc23)CC12CC2` (stereo not shown) [Example 413, Indan-1-yl-[7-(7H-pyrrolo[2,3-d]pyrimidin-4-yl)-4,7-diaza-spiro[2.5]oct-4-yl]-methanone]: the EC50 is above 500 nM in assay [1] (setting [9]), below 100 nM in assay [2] (setting [10]), 100 to 500 nM in assay [3] (setting [11]) and 100 to 500 nM in assay [4] (setting [12]).
For `NS(=O)(=O)c1cnn(CCC(=O)N2CCN(c3ncnc4[nH]ccc34)CC23CC3)c1` [Example 435, 1-{3-Oxo-3-[7-(7H-pyrrolo[2,3-d]pyrimidin-4-yl)-4,7-diaza-spiro[2.5]oct-4-yl]-propyl}-1H-pyrazole-4-sulfonic acid amide], the EC50 is 100 to 500 nM in assay [1] (HTRF assay, read-out: TYK2 kinase inhibitory activity (EC50)); below 100 nM in assay [2] (HTRF assay, read-out: JAK2 kinase inhibitory activity (EC50)); below 100 nM in assay [3] (HTRF assay, read-out: JAK1 kinase inhibitory activity (EC50)); below 100 nM in assay [4] (HTRF assay, read-out: JAK3 kinase inhibitory activity (EC50)).
As to `O=C(c1ccc(=O)[nH]c1)N1CCN(c2ncnc3[nH]ccc23)CC12CC2` [Example 56, 5-[7-(7H-Pyrrolo[2,3-d]pyrimidin-4-yl)-4,7-diazaspiro[2.5]octane-4-carbonyl]-1H-pyridin-2-one], the EC50 in assay [1] (setting [5]) was above 500 nM; in assay [2] (setting [6]) it was below 100 nM; in assay [3] (setting [7]) it was below 100 nM; in assay [4] (setting [8]), 100 to 500 nM.
With `N#Cc1ccc(C(=O)N2C[C@@H]3C[C@H]2CN3c2ncnc3[nH]ccc23)cc1` [Example 258, 4-[5-(7H-Pyrrolo[2,3-d]pyrimidin-4-yl)-2,5-diaza-bicyclo[2.2.1]heptane-2-carbonyl]-benzonitrile], the EC50 in assay [1] (setting [9]), in assay [2] (setting [10]), in assay [3] (setting [11]) and in assay [4] (setting [12]) was above 500 nM each time.
Take `O=C(Cc1c[nH]c2ccccc12)N1[C@@H]2CC[C@@H]1CN(c1ncnc3[nH]ccc13)C2` [Example 170, 2-(1H-Indol-3-yl)-1-[3-(7H-pyrrolo[2,3-d]pyrimidin-4-yl)-3,8-diaza-bicyclo[3.2.1]oct-8-yl]-ethanone]: the EC50 in assay [1] (setting [5]) is above 500 nM; in assay [2] (setting [6]) it was 100 to 500 nM; in assay [3] (setting [7]), 100 to 500 nM; in assay [4] (setting [8]), 100 to 500 nM.
Regarding `Cc1ccc(CNS(=O)(=O)c2ccc(C(=O)N3CCN(c4ncnc5[nH]ccc45)CC34CC4)cc2)o1` [Example 427, N-(5-Methyl-furan-2-ylmethyl)-4-[7-(7H-pyrrolo[2,3-d]pyrimidin-4-yl)-4,7-diaza-spiro[2.5]octane-4-carbonyl]-benzenesulfonamide], the EC50 in assay [1] (setting [9]), in assay [2] (setting [10]), in assay [3] (setting [11]) and in assay [4] (setting [12]) was below 100 nM throughout.
As for `O=C(c1cc2c(s1)CCC2)N1CCN(c2ncnc3[nH]ccc23)CC12CC2` [Example 61, (5,6-Dihydro-4H-cyclopenta[b]thiophen-2-yl)[7-(7H-pyrrolo[2,3-d]pyrimidin-4-yl)-4,7-diaza-spiro[2.5]oct-4-yl]-methanone], the EC50 in assay [1] (setting [5]), in assay [2] (setting [6]), in assay [3] (setting [7]) and in assay [4] (setting [8]) was below 100 nM in each case.
As for `CC(C)(C)OC(=O)N1CCN(c2ncnc3[nH]ccc23)CC12CC2` [Example 45, 7-(7H-pyrrolo[2,3-d]pyrimidin-4-yl)-4,7-diazaspiro[2.5]octane-4-carboxylic acid tert-butyl ester], the EC50 is above 500 nM in assay [1] (setting [5]), below 100 nM in assay [2] (setting [6]), below 100 nM in assay [3] (setting [7]) and below 100 nM in assay [4] (setting [8]).
For `NS(=O)(=O)c1ccc(CC(=O)N2CCN(c3ncnc4[nH]ccc34)CC23CC3)s1` [Example 195, 5-{2-Oxo-2-[7-(7H-pyrrolo[2,3-d]pyrimidin-4-yl)-4,7-diaza-spiro[2.5]oct-4-yl]-ethyl}-thiophene-2-sulfonic acid amide], the EC50 in assay [1] (setting [5]) was 100 to 500 nM; in assay [2] (setting [6]), below 100 nM; in assay [3] (setting [7]) it was below 100 nM; in assay [4] (setting [8]) it was below 100 nM.
As to `COc1cc(S(N)(=O)=O)ccc1C(=O)N1CCN(c2ncnc3[nH]ccc23)CC12CC2` [Example 389, 3-Methoxy-4-[7-(7H-pyrrolo[2,3-d]pyrimidin-4-yl)-4,7-diaza-spiro[2.5]octane-4-carbonyl]-benzenesulfonamide], the EC50 in assay [1] (setting [9]) was 100 to 500 nM; in assay [2] (setting [10]), below 100 nM; in assay [3] (setting [11]) it was below 100 nM; in assay [4] (setting [12]) it was below 100 nM.
Consider `Cc1ccc(C(=O)N2CCN(c3ccnc4[nH]ccc34)CC23CC3)s1` [Example 231, (5-Methyl-thiophen-2-yl)-[7-(1H-pyrrolo[2,3-b]pyridin-4-yl)-4,7-diaza-spiro[2.5]oct-4-yl]-methanone], for which the EC50 is 100 to 500 nM in assay [1] (setting [9]), below 100 nM in assay [2] (setting [10]), below 100 nM in assay [3] (setting [11]) and 100 to 500 nM in assay [4] (setting [12]).
